Experimental data: patent publication US20030228253A1, “Radiolabelled thioplatin, compositions thereof and methods of cancer treatment” (priority 2002, published 2003)
Entries after “also recorded” stand apart in the source; their conditions may differ.

Experiments:
human squamous carcinoma = conditions: nude mice bearing a human squamous carcinoma; cited from earlier work
DNA of tumor cells [1] = conditions: background statement; cited from earlier work
DNA of tumor cells [2] = assay: DNA binding of platinum compounds; conditions: for DNA binding: pH 6.8 (solid tumor pH norm)
Source text: ^195mPlatinum is cytotoxic by its release of “auger” electron at 33/disintegrations and with a half-life of over 4 days. In order to amplify the cytotoxicity of the tumor cells, the final drug radioactive thioplatin must be located on the DNA of tumor cells. […] Radioactive thioplatin can be quantitated in the clinic by nuclear SPECT scanning of the tumor and normal tissues for low-energy photons (65-129 kev) emitted by radioactive platinum.

[3] = test system: human lung and colon cancer; assay: Tumor cytotoxicity in human tumor xenografts in nude mice; type: in vivo
[4] = Normal tissue toxicity in experimental animals (body weight, white blood cells, BUN, histopathology/biopsy of kidney and intestine); type: in vivo
Method: Thioplatin administered to experimental animals was assayed for the effects of the drug on body weight, white blood cells, BUN and histophathology of kidneys and small intestines.

[5] = background statement; cited from earlier work

Compound	antitumor effect (tumor growth delay, log of tumor growth, area under the curve) (human squamous carcinoma)	binding of DNA (DNA of tumor cells [1]) [nanograms/milligrams]	DNA binding (DNA of tumor cells [2])	tumor cytotoxicity ([3]; human tumor xenografts in nude mice, human lung and colon cancer)	pH dependence of cytotoxicity ([3]; tumor pH 6.8 versus normal pH 7.2 to 7.4)	DNA binding relative to cisplatin (DNA of tumor cells [2]; background statement, compared to cisplatin)	effect on BUN ([4]; experimental animals)	effect on body weight ([4]; experimental animals)	effect on white blood cells ([4]; experimental animals)	histopathology of kidneys and small intestines ([4]; experimental animals)	normal tissue toxicity compared to cisplatin ([4]; human tumor xenografts in nude mice, compared to the standard cisplatin)	peripheral toxicity by direct biopsy of the kidney and intestinal tract [5]
N.N.[Cl][191Pt][Cl] [^191cisplatin]	cytotoxic to the tumor	–	–	–	–	–	–	–	–	–	–	–
N.N.[Cl][Pt][Cl] [cisplatin]	–	14.3	14.6 ng/mg	–	–	–	–	–	–	–	–	–
thioplatin	–	–	13,870 ng/mg	cytotoxic to human lung and colon cancer; also recorded: significant tumor cytotoxicity	most effective at an acidic pH	one-thousand	negligible	negligible	negligible	negligible	reduced normal tissue toxicity	lack of normal tissue toxicity
